Results reported in ChEMBL document CHEMBL1152885 (Bioorg Med Chem Lett, 2009).

Legend:
[1] = biological target: Carbonic anhydrase 1 (Homo sapiens, UniProt P00915)
[2] = biological target: Carbonic anhydrase 12 (Homo sapiens, UniProt O43570)
[3] = biological target: Carbonic anhydrase 14 (Homo sapiens, UniProt Q9ULX7)
[4] = biological target: Carbonic anhydrase 3 (Homo sapiens, UniProt P07451)
[5] = biological target: Carbonic anhydrase 4 (Homo sapiens, UniProt P22748)
[6] = biological target: Carbonic anhydrase 6 (Homo sapiens, UniProt P23280)
[7] = biological target: Carbonic anhydrase 13 (Mus musculus, UniProt Q9D6N1)
[8] = biological target: Carbonic anhydrase 5B, mitochondrial (Homo sapiens, UniProt Q9Y2D0)
[9] = biological target: Carbonic anhydrase 9 (Homo sapiens, UniProt Q16790)

Carbonic anhydrase 1, sequence (P00915 whole entry): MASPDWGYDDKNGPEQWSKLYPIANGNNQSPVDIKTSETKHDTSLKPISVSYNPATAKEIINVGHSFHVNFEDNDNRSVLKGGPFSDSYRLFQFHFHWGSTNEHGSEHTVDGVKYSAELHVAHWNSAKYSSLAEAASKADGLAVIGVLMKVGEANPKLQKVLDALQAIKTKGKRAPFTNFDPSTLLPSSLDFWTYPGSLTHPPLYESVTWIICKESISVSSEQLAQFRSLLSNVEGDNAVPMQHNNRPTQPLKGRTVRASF
Carbonic anhydrase 6, sequence (P23280 whole entry): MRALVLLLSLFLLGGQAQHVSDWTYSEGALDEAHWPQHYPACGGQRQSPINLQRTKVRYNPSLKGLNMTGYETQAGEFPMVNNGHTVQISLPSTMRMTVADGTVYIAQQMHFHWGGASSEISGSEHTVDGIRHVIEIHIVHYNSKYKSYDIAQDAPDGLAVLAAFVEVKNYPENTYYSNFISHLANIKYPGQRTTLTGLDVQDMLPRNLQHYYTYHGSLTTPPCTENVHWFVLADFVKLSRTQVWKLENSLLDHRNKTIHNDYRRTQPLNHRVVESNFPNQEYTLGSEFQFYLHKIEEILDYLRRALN
Carbonic anhydrase 12, sequence (O43570 whole entry): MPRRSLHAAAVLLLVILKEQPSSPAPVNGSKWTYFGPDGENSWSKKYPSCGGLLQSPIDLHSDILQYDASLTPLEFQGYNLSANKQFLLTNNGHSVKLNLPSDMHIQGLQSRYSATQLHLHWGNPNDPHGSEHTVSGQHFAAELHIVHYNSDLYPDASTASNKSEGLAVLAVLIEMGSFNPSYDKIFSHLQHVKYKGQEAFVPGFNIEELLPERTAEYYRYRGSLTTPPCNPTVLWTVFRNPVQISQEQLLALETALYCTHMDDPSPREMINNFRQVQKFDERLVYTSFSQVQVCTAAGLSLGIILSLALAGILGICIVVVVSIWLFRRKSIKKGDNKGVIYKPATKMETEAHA
Carbonic anhydrase 13, sequence (Q9D6N1 whole entry): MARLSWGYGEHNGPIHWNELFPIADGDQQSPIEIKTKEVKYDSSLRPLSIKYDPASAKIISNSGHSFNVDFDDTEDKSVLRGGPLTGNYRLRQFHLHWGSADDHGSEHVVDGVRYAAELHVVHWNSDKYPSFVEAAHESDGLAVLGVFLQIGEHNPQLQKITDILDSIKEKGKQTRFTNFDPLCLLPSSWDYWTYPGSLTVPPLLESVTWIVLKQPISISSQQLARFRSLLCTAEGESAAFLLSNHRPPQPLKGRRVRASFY
Carbonic anhydrase 3, sequence (P07451 whole entry): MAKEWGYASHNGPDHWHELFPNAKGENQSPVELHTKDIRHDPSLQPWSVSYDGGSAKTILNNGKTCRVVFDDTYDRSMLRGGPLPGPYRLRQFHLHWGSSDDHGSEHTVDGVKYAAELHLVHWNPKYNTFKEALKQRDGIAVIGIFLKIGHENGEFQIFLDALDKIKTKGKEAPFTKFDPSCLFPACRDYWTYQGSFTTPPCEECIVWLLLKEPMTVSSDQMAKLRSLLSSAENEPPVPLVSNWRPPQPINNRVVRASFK
Carbonic anhydrase 4, sequence (P22748 whole entry): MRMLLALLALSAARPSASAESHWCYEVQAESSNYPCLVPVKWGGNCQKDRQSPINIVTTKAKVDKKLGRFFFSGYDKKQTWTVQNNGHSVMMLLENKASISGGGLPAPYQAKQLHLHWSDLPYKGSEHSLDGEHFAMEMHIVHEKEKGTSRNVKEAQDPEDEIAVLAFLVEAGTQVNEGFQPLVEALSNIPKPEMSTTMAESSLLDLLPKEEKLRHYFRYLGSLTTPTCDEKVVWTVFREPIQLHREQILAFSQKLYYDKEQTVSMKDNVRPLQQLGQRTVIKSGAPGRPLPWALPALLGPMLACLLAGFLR
Carbonic anhydrase 5B, mitochondrial, sequence (Q9Y2D0 whole entry): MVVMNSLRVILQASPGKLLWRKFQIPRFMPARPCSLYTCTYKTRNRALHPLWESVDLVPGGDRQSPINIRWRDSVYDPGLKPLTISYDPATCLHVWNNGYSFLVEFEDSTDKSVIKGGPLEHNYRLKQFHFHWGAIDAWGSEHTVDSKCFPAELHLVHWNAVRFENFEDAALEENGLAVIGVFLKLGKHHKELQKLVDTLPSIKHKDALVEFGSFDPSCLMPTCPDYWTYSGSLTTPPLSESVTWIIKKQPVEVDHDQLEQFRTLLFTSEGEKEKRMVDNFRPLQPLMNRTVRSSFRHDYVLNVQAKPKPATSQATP
Carbonic anhydrase 14, sequence (Q9ULX7 whole entry): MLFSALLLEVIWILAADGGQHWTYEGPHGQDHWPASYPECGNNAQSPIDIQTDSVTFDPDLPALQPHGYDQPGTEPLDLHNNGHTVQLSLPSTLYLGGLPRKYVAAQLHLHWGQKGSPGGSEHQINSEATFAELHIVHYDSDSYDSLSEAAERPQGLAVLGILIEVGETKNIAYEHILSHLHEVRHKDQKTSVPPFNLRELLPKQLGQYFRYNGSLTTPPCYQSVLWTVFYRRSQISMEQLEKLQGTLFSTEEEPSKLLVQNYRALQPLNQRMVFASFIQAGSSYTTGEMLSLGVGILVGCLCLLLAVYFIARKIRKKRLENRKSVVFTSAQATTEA

Ki [1]: 50.9 nM
Ki [2]: 17.8 nM
Ki [3]: 424 nM
Ki [4]: 34500 nM
Ki [5]: 48.9 nM
Ki [6]: 25 nM
Ki [7]: 4850 nM
Ki [8]: 40.9 nM
Ki [9]: 6.4 nM
SMILES: NS(=O)(=O)c1ccc2[nH]c(-c3cscn3)nc2c1
